Target: T1, EIF2AK2 (PKR) (Homo sapiens, UniProt P19525)
T1 construct: purchased Thermo Fisher Scientific (Life Technologies) SelectScreen
Test: SelectScreen LanthaScreen
Assay type: binding
Details: 1 µM
Summary of the method: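 SelectScreen broad panel; activity (Z'LYTE, Adapta) plus binding formats. ATP: Km app for CSF1R Z'LYTE; 10 for CAMK1 Adapta. Readout = % per kinase.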

T1 sequence (P19525 whole entry): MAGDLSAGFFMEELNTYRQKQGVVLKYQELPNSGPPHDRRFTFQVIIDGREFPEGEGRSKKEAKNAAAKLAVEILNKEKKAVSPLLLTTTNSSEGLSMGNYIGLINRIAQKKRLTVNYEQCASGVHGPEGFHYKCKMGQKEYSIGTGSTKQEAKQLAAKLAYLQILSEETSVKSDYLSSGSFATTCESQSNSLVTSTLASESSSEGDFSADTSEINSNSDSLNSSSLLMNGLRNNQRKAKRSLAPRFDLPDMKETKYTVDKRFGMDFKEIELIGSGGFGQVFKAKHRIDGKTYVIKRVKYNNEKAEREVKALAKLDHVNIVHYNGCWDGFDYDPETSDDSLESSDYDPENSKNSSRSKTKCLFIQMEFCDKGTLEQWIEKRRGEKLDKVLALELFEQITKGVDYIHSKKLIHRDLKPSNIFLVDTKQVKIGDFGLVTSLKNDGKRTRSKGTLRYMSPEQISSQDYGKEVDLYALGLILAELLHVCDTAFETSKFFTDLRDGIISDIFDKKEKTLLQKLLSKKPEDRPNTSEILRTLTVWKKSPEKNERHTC

CN(C(=O)CN1CCOCC1)c1ccc2sc3c(-c4cccc5c(=O)cc(N6CC7CCC(C6)O7)oc45)cccc3c2c1 [NU5455]
% displacement: 13.3%
